Data published in patent publication US12239643B2, “Therapeutic agent for inflammatory diseases, autoimmune diseases, fibrotic diseases, and cancer diseases” (MEIJI SEIKA PHARMA CO., LTD., priority 2018, dated 2025).
Like-named read-outs stand apart in the source and are kept apart here.

Tested on: PDE4
Experiment: Evaluation of PDE4 inhibitory activity, scintillation proximity assay
Format: biochemical
Conditions: scintillation proximity assay
Protocol: The BDE4 inhibitory activity was measured using scintillation proximity assay (SPA) as follows. First, a test compound dissolved in dimethyl sulfoxide was diluted 1:10 in reaction buffer solution which contained 50 mM of Tris-HCl with pH 7.4, 8.3 mM of MgCl2, 1.7 mM of EGTA, and 3 mg/mL of bovine serum albumin (BSA). Then, 10 μL of the diluted solution was added in a 96-well assay plate. Moreover, 50 μL of PDE4 (enzyme preparation) diluted 1:375 in the reaction buffer solution was added, and then 40 μL of [2,8-^3H]-adenosine-3′,5′-cyclic phosphate triethylammonium salt diluted 1:1000 in the reaction buffer solution was added. The mixture was allowed to stand at room temperature for 120 minutes. Thereafter, […] of RNA binding YSi-SPA beads suspension containing ZnSO4 was added and the mixture was allowed to stand at room temperature for 15 minutes, followed by adsorption of the enzyme reaction product to the beads. After that, the radioactivity was measured using a liquid scintillation counter for a 96-well plate. The mixture without the enzyme preparation added but only the reaction buffer solution added is a blank, and the mixture with the enzyme preparation added and only dimethyl sulfoxide added instead of the test compound is a control.
In addition, the PDE4 inhibitory activity (concentration that inhibits PDE4 activity by 50%=concentration for the inhibition rate of 50% (IC50)) of the test compound was calculated from the inhibition curves based on the inhibition rates for various concentrations of the test compound.

[1] = read-out: PDE4 Inhibitory Activity (Evaluation 1; concentration for the inhibition rate of 50%)
[2] = class symbols of Evaluation 1, read-out: PDE4 Inhibitory Activity (concentration for the inhibition rate of 50%, IC50), Evaluation 1

SMILES: CON=C(C)c1cc(-c2nccs2)c2oc(N3CC4CCC(C3)N4)nc2c1OC(F)(F)F (mixture of isomers) [Example 218, (E)-1-(2-(3,8-diazabicyclo[3.2.1]octan-3-yl)-7-(thiazol-2-yl)-4-(trifluoromethoxy)benzo[d]oxazol-5-yl)ethan-1-one O-methyloxime and (Z)-1-(2-(3,8-diazabicyclo[3.2.1]octan-3-yl)-7-(thiazol-2-yl)-4-(trifluoromethoxy)benzo[d]oxazol-5-yl)ethan-1-one O-methyloxime]
- IC50 [1]: < 100 nM

SMILES: OC(c1cc(-c2nccs2)c2oc(N3CC4CCC(C3)N4)nc2c1)C(F)(F)F (racemic) [Example 137, 1-(2-(3,8-Diazabicyclo[3.2.1]octan-3-yl)-7-(thiazol-2-yl)benzo[d]oxazol-5-yl)-2,2,2-trifluoroethan-1-ol]
- IC50 [2]: < 100 nM

SMILES: CC(O)C(F)(F)Oc1ccc(-c2nccs2)c2oc(N3CC4CC(C3)N4)nc12 (racemic) [Example 250, 1-((2-(3,6-Diazabicyclo[3.1.1]heptan-3-yl)-7-(thiazol-2-yl)benzo[d]oxazol-4-yl)oxy)-1,1-difluoropropan-2-ol]
- IC50 [1]: < 100 nM

SMILES: FC(F)(F)Oc1c(Cl)cc(-c2nccs2)c2oc(N3CC4CCC(C3)N4)nc12 [Example 1, 2-(3,8-Diazabicyclo[3.2.1]octan-3-yl)-5-chloro-7-(thiazol-2-yl)-4-(trifluoromethoxy)benzo[d]oxazole]
- IC50 [2]: < 100 nM

SMILES: FC(F)(F)Oc1c(Cl)cc(-c2nccs2)c2oc(N3CC4CCCC(C3)N4)nc12 [Example 2, 2-(3,9-Diazabicyclo[3.3.1]nonan-3-yl)-5-chloro-7-(thiazol-2-yl)-4-(trifluoromethoxy)benzo[d]oxazole]
- IC50 [2]: < 100 nM

SMILES: FC(F)(F)Oc1c(Cl)cc(-c2ccco2)c2oc(N3CC4CCC(C3)N4)nc12 [Example 6, 2-(3,8-Diazabicyclo[3.2.1]octan-3-yl)-5-chloro-7-(furan-2-yl)-4-(trifluoromethoxy)benzo[d]oxazole]
- IC50 [2]: < 100 nM

SMILES: FC(F)(F)Oc1c(Cl)cc(-c2ccccn2)c2oc(N3CC4CCC(C3)N4)nc12 [Example 7, 2-(3,8-Diazabicyclo[3.2.1]octan-3-yl)-5-chloro-7-(pyridin-2-yl)-4-(trifluoromethoxy)benzo[d]oxazole]
- IC50 [2]: < 100 nM

SMILES: FC(F)(F)Oc1c(Cl)cc(-c2ncco2)c2oc(N3CC4CCC(C3)N4)nc12 [Example 9, 2-(3,8-Diazabicyclo[3.2.1]octan-3-yl)-5-chloro-7-(oxazol-2-yl)-4-(trifluoromethoxy)benzo[d]oxazole]
- IC50 [2]: < 100 nM

SMILES: FC(F)(F)c1c(Cl)cc(-c2ccccn2)c2oc(N3CC4CCC(C3)N4)nc12 [Example 11, 2-(3,8-Diazabicyclo[3.2.1]octan-3-yl)-5-chloro-7-(pyridin-2-yl)-4-(trifluoromethyl)benzo[d]oxazole]
- IC50 [2]: < 100 nM

SMILES: FC(F)(F)c1c(Cl)cc(-c2ccccn2)c2oc(N3CC4CC(C3)N4)nc12 [Example 13, 2-(3,6-Diazabicyclo[3.1.1]heptan-3-yl)-5-chloro-7-(pyridin-2-yl)-4-(trifluoromethyl)benzo[d]oxazole]
- IC50 [2]: < 100 nM

SMILES: FC(F)(F)c1c(Cl)cc(-c2ccccn2)c2oc(N3CC4COCC(C3)N4)nc12 [Example 14, 7-(5-Chloro-7-(pyridin-2-yl)-4-(trifluoromethyl)benzo[d]oxazol-2-yl)-3-oxa-7,9-diazabicyclo[3.3.1]nonane]
- IC50 [2]: 100 to 1000 nM

SMILES: FC(F)(F)c1c(Cl)cc(-n2cccn2)c2oc(N3CC4CCC(C3)N4)nc12 [Example 15, 2-(3,8-Diazabicyclo[3.2.1]octan-3-yl)-5-chloro-7-(1H-pyrazol-1-yl)-4-(trifluoromethyl)benzo[d]oxazole]
- IC50 [2]: < 100 nM

SMILES: FC(F)(F)c1c(Cl)cc(-n2cccn2)c2oc(N3CC4CCCC(C3)N4)nc12 [Example 16, 2-(3,9-Diazabicyclo[3.3.1]nonan-3-yl)-5-chloro-7-(1H-pyrazol-1-yl)-4-(trifluoromethyl)benzo[d]oxazole]
- IC50 [2]: < 100 nM

SMILES: FC(F)(F)c1c(Cl)cc(-n2cccn2)c2oc(N3CC4COCC(C3)N4)nc12 [Example 18, 7-(5-Chloro-7-(1H-pyrazol-1-yl)-4-(trifluoromethyl)benzo[d]oxazol-2-yl)-3-oxa-7,9-diazabicyclo[3.3.1]nonane]
- IC50 [2]: 100 to 1000 nM

SMILES: FC(F)(F)c1c(Cl)cc(-c2nccs2)c2oc(N3CC4COCC(C3)N4)nc12 [Example 19, 7-(5-Chloro-7-(thiazol-2-yl)-4-(trifluoromethyl)benzo[d]oxazol-2-yl)-3-oxa-7,9-diazabicyclo[3.3.1]nonane]
- IC50 [2]: < 100 nM

SMILES: FC(F)(F)c1c(Cl)cc(-c2nccs2)c2oc(N3CC4CCC(C3)N4)nc12 [Example 20, 2-(3,8-Diazabicyclo[3.2.1]octan-3-yl)-5-chloro-7-(thiazol-2-yl)-4-(trifluoromethyl)benzo[d]oxazole]
- IC50 [2]: < 100 nM

SMILES: CC(C)c1cc(-c2nccs2)c2oc(N3CC4CCC(C3)N4)nc2c1 [Example 21, 2-(3,8-Diazabicyclo[3.2.1]octan-3-yl)-5-isopropyl-7-(thiazol-2-yl)benzo[d]oxazole]
- IC50 [2]: < 100 nM

SMILES: CC(C)c1cc(-c2nccs2)c2oc(N3CC4CC(C3)N4)nc2c1 [Example 22, 2-(3,6-Diazabicyclo[3.1.1]heptan-3-yl)-5-isopropyl-7-(thiazol-2-yl)benzo[d]oxazole]
- IC50 [2]: < 100 nM

SMILES: CC(C)c1cc(-c2nccs2)c2oc(N3CC4COCC(C3)N4)nc2c1 [Example 23, 7-(5-Isopropyl-7-(thiazol-2-yl)benzo[d]oxazol-2-yl)-3-oxa-7,9-diazabicyclo[3.3.1]nonane]
- IC50 [2]: 100 to 1000 nM

SMILES: CC(C)c1cc(-c2nccs2)c2oc(N3CC4CCCC(C3)N4)nc2c1 [Example 24, 2-(3,9-Diazabicyclo[3.3.1]nonan-3-yl)-5-isopropyl-7-(thiazol-2-yl)benzo[d]oxazole]
- IC50 [2]: < 100 nM

SMILES: Cc1ccc(-c2nccs2)c2oc(N3CC4CC(C3)N4)nc12 [Example 26, 2-(3,6-Diazabicyclo[3.1.1]heptan-3-yl)-4-methyl-7-(thiazol-2-yl)benzo[d]oxazole]
- IC50 [2]: < 100 nM

SMILES: Cc1ccc(-c2nccs2)c2oc(N3CC4CCCC(C3)N4)nc12 [Example 27, 2-(3,9-Diazabicyclo[3.3.1]nonan-3-yl)-4-methyl-7-(thiazol-2-yl)benzo[d]oxazole]
- IC50 [2]: < 100 nM

SMILES: FC(F)(F)Oc1ccc(-c2nccs2)c2oc(N3CC4CCC(C3)N4)nc12 [Example 28, 2-(3,8-Diazabicyclo[3.2.1]octan-3-yl)-7-(thiazol-2-yl)-4-(trifluoromethoxy)benzo[d]oxazole]
- IC50 [2]: < 100 nM

SMILES: FC(F)(F)c1ccc(-c2nccs2)c2oc(N3CC4CCC(C3)N4)nc12 [Example 31, 2-(3,8-Diazabicyclo[3.2.1]octan-3-yl)-7-(thiazol-2-yl)-4-(trifluoromethyl)benzo[d]oxazole]
- IC50 [2]: < 100 nM

SMILES: FC(F)(F)c1ccc(-c2nccs2)c2oc(N3CC4CCCC(C3)N4)nc12 [Example 33, 2-(3,9-Diazabicyclo[3.3.1]nonan-3-yl)-7-(thiazol-2-yl)-4-(trifluoromethyl)benzo[d]oxazole]
- IC50 [2]: < 100 nM

SMILES: CC(=O)Nc1ccc(-c2nccs2)c2oc(N3CC4CCCC(C3)N4)nc12 [Example 34, N-(2-(3,9-Diazabicyclo[3.3.1]nonan-3-yl)-7-(thiazol-2-yl)benzo[d]oxazol-4-yl)acetamide]
- IC50 [2]: < 100 nM

SMILES: CC(=O)Nc1ccc(-c2nccs2)c2oc(N3CC4CC(C3)N4)nc12 [Example 35, N-(2-(3,6-diazabicyclo[3.1.1]heptan-3-yl)-7-(thiazol-2-yl)benzo[d]oxazol-4-yl)acetamide]
- IC50 [2]: 100 to 1000 nM

SMILES: Clc1ccc(-c2nccs2)c2oc(N3CC4CCC(C3)N4)nc12 [Example 36, 2-(3,8-Diazabicyclo[3.2.1]octan-3-yl)-4-chloro-7-(thiazol-2-yl)benzo[d]oxazole]
- IC50 [2]: < 100 nM

SMILES: Clc1ccc(-c2nccs2)c2oc(N3CC4CC(C3)N4)nc12 [Example 37, 2-(3,6-Diazabicyclo[3.1.1]heptan-3-yl)-4-chloro-7-(thiazol-2-yl)benzo[d]oxazole]
- IC50 [2]: < 100 nM

SMILES: Clc1ccc(-c2nccs2)c2oc(N3CC4CCCC(C3)N4)nc12 [Example 38, 2-(3,9-Diazabicyclo[3.3.1]nonan-3-yl)-4-chloro-7-(thiazol-2-yl)benzo[d]oxazole]
- IC50 [2]: < 100 nM

SMILES: CSc1cc(-c2nccs2)c2oc(N3CC4CCC(C3)N4)nc2c1 [Example 39, 2-(3,8-Diazabicyclo[3.2.1]octan-3-yl)-5-(methylthio)-7-(thiazol-2-yl)benzo[d]oxazole]
- IC50 [2]: < 100 nM

SMILES: CSc1cc(-c2nccs2)c2oc(N3CC4CC(C3)N4)nc2c1 [Example 40, 2-(3,6-Diazabicyclo[3.1.1]heptan-3-yl)-5-(methylthio)-7-(thiazol-2-yl)benzo[d]oxazole]
- IC50 [2]: < 100 nM

SMILES: CSc1cc(-c2nccs2)c2oc(N3CC4CCCC(C3)N4)nc2c1 [Example 41, 2-(3,9-Diazabicyclo[3.3.1]nonan-3-yl)-5-(methylthio)-7-(thiazol-2-yl)benzo[d]oxazole]
- IC50 [2]: < 100 nM

SMILES: C[S+]([O-])c1cc(-c2nccs2)c2oc(N3CC4CCC(C3)N4)nc2c1 (stereo not shown) [Example 42, 2-(3,8-Diazabicyclo[3.2.1]octan-3-yl)-5-(methylsulfinyl)-7-(thiazol-2-yl)benzo[d]oxazole]
- IC50 [2]: < 100 nM
